These results are taken from article PMC3375359 (Journal of Medicinal Chemistry, 2012).

Bounds are passed on as bounds.

T1 sequence (P35372 whole entry): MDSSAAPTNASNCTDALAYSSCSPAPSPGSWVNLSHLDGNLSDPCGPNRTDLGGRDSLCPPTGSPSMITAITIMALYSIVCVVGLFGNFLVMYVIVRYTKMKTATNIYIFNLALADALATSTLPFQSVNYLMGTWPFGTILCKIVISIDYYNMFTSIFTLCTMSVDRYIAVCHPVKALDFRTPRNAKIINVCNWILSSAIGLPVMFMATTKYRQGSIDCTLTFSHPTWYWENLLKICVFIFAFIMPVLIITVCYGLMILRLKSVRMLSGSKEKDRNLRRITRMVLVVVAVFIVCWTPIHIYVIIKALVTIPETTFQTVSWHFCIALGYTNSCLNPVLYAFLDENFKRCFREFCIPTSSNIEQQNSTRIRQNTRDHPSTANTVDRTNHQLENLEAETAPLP

The first assay has as its target T1, human MOR (Homo sapiens, UniProt P35372).
Test: not given
In kind it is binding.
Details: not given
As for `Oc1ccccc1CNc1ccc2c(c1)[C@@]13CCCC[C@H]1[C@@H](C2)N(CC1CC1)CC3` [Compound 4d, (−)-17-(cyclopropylmethyl)-N-(2-hydroxybenzyl)morphinan-3-amine], the “Selectivity MOR/KOR/DOR” value is 10/1/150.
Same read-out and setting: the same measure for `COc1cccc(CN(C)c2ccc3c(c2)[C@@]24CCCC[C@H]2[C@@H](C3)N(CC2CCC2)CC4)c1` [Compound 5b]: 1/2/27.
On the same count and under the same terms, the same measure for `COc1cccc(CNc2ccc3c(c2)[C@@]24CCCC[C@H]2[C@@H](C3)N(CC2CCC2)CC4)c1` [Compound 3b, (−)-17-(cyclobutylmethyl)-N-(3-methoxybenzyl)-morphinan-3-amine]: 1/5/220; for `Clc1ccc(CNc2ccc3c(c2)[C@@]24CCCC[C@H]2[C@@H](C3)N(CC2CCC2)CC4)cc1` [Compound 3d, (−)-17-(cyclobutylmethyl)-N-(4-chlorobenzyl)-morphinan-3-amine]: 1/3/59.
Same read-out and setting: the value for `COc1cccc(CNc2ccc3c(c2)[C@@]24CCCC[C@H]2[C@@H](C3)N(CC2CC2)CC4)c1` [Compound 3g, (−)-17-(cyclopropylmethyl)-N-(3-methoxybenzyl)-morphinan-3-amine] was 1/3/220.
Regarding `Oc1cccc(CNc2ccc3c(c2)[C@@]24CCCC[C@H]2[C@@H](C3)N(CC2CCC2)CC4)c1` [Compound 4b, (−)-17-(cyclobutylmethyl)-N-(3-hydroxybenzyl)-morphinan-3-amine], the “Selectivity MOR/KOR/DOR” value is 1/6/720.
Still for that read-out and setting: the same measure for `COc1ccccc1CNc1ccc2c(c1)[C@@]13CCCC[C@H]1[C@@H](C2)N(CC1CC1)CC3` [Compound 3f, (−)-17-(cyclopropylmethyl)-N-(2-methoxybenzyl)-morphinan-3-amine]: 1/1/130; for `COc1ccccc1CN(C)c1ccc2c(c1)[C@@]13CCCC[C@H]1[C@@H](C2)N(CC1CCC1)CC3` [Compound 5a, (−)-17-(cyclobutylmethyl)-N-methyl-N-(2-methoxybenzyl)-morphinan-3-amine]: 1/1/14; for `Nc1ccc2c(c1)[C@@]13CCCC[C@H]1[C@@H](C2)N(CC1CC1)CC3` [Compound 2c]: 7/1/830.
As to `COc1ccccc1CNc1ccc2c(c1)[C@@]13CCCC[C@H]1[C@@H](C2)N(CC1CCC1)CC3` [Compound 3a, (−)-17-(cyclobutylmethyl)-N-(2-methoxybenzyl)-morphinan-3-amine], the “Selectivity MOR/KOR/DOR” value is given as 1/1/28.
Same read-out and setting: the same measure for `Oc1ccccc1CNc1ccc2c(c1)[C@@]13CCCC[C@H]1[C@@H](C2)N(CC1CCC1)CC3` [Compound 4a, (−)-17-(cyclobutylmethyl)-N-(2-hydroxybenzyl)-morphinan-3-amine]: 1/1/65.

Staying with this assay, now noted: Table 1; ratio of Ki values.
Take `c1cc2c(cc1CNc1ccc3c(c1)[C@@]14CCCC[C@H]1[C@@H](C3)N(CC1CCC1)CC4)OCO2` [Compound 3e, (−)-17-(cyclobutylmethyl)-N-(3,4-methylenedioxybenzyl)morphinan-3-amine]: the “Selectivity MOR/KOR/DOR” value is listed as 1/3/160.
The same measure, in the same setting: the value for `CN1CC[C@]23CCCC[C@H]2[C@H]1Cc1ccc(NCc2cccc(O)c2)cc13` [Compound 4g] was 1/24/1700.
Regarding `COc1ccc(CNc2ccc3c(c2)[C@@]24CCCC[C@H]2[C@@H](C3)N(CC2CC2)CC4)cc1` [Compound 3h, (−)-17-(cyclopropylmethyl)-N-(4-methoxybenzyl)-morphinan-3-amine], the “Selectivity MOR/KOR/DOR” value was 1/2/65.
On the same count and under the same terms, the value for `O=[N+]([O-])c1cccc(CNc2ccc3c(c2)[C@@]24CCCC[C@H]2[C@@H](C3)N(CC2CCC2)CC4)c1` [Compound 3k, (−)-3-(3′-nitrobenzyl)amino-17-cyclobutylmethylmorphinan] was 1/3/350.
On to `COc1ccc(CN(C)c2ccc3c(c2)[C@@]24CCCC[C@H]2[C@@H](C3)N(CC2CCC2)CC4)cc1` [Compound 5c, (−)-17-(cyclobutylmethyl)-N-methyl-N-(4-methyloxybenzyl)-morphinan-3-amine], for which the “Selectivity MOR/KOR/DOR” value is 1/1/34.
For `CN(Cc1ccc(O)cc1)c1ccc2c(c1)[C@@]13CCCC[C@H]1[C@@H](C2)N(CC1CCC1)CC3` [Compound 6c, (−)-17-(cyclobutylmethyl)-N-methyl-N-(4-hydroxybenzyl)-morphinan-3-amine], the “Selectivity MOR/KOR/DOR” value is 1/1/170.
`CN(Cc1cccc(O)c1)c1ccc2c(c1)[C@@]13CCCC[C@H]1[C@@H](C2)N(CC1CCC1)CC3` [Compound 6b]: the “Selectivity MOR/KOR/DOR” value is reported as 1/1/10.
The same measure, in the same setting: the same measure for `Oc1ccc(CNc2ccc3c(c2)[C@@]24CCCC[C@H]2[C@@H](C3)N(CC2CCC2)CC4)cc1` [Compound 4c, (−)-17-(cyclobutylmethyl)-N-(4-hydroxybenzyl)morphinan-3-amine]: 1/7/340; for `c1cc2c(cc1CNc1ccc3c(c1)[C@@]14CCCC[C@H]1[C@@H](C3)N(CC1CC1)CC4)OCO2` [Compound 3i, (−)-17-(cyclopropylmethyl)-N-(3,4-methylenedihydroxybenzyl)-morphinan-3-amine]: 1/3/120.
Still for that read-out and setting: the same measure for `Oc1ccc(CNc2ccc3c(c2)[C@@]24CCCC[C@H]2[C@@H](C3)N(CC2CC2)CC4)cc1` [Compound 4f, (−)-17-(cyclopropylmethyl)-N-(4-hydroxybenzyl)-morphinan-3-amine]: 1/1/44; for `COc1ccc(CNc2ccc3c(c2)[C@@]24CCCC[C@H]2[C@@H](C3)N(CC2CCC2)CC4)cc1` [Compound 3c, (−)-17-(cyclobutylmethyl)-N-(4-methoxybenzyl)-morphinan-3-amine]: 1/5/300; for `CN(Cc1ccc(Cl)cc1)c1ccc2c(c1)[C@@]13CCCC[C@H]1[C@@H](C2)N(CC1CCC1)CC3` [Compound 5d, (−)-17-(cyclobutylmethyl)-N-methyl-N-(4-chlorobenzyl)-morphinan-3-amine]: 1/1/28.
Still for that read-out and setting: the value for `Oc1cccc(CNc2ccc3c(c2)[C@@]24CCCC[C@H]2[C@@H](C3)N(CC2CC2)CC4)c1` [Compound 4e, (−)-17-(cyclopropylmethyl)-N-(3-hydroxybenzyl)-morphinan-3-amine] was 1/2/260.

The same assay, now with this note: from binding affinities.
As for `CN1CC[C@]23CCCC[C@H]2[C@H]1Cc1ccc(NCc2cccc(O)c2)cc13` [Compound 4g], the “selectivity MOR to DOR” value is listed as around 2000 fold.

For another assay, the target named is human KOR (Homo sapiens, UniProt P41145).
Sequence of human KOR (P41145 whole entry): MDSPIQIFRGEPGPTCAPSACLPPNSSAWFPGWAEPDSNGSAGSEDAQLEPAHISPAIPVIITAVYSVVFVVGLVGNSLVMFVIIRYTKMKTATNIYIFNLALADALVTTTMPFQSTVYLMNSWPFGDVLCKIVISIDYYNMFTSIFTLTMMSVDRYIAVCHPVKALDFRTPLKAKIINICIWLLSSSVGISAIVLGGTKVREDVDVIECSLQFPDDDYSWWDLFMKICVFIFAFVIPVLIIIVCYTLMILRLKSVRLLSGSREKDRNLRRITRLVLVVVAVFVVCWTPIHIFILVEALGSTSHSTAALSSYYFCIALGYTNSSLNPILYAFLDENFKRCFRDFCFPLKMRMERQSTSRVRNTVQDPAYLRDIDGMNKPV
Test: not given
The conditions noted are these: from binding affinities.
For `Oc1cccc(CNc2ccc3c(c2)C[C@@H]2[C@@H]4CCCC[C@]34CCN2CC2CC2)c1` [Compound 17, 2-(3′-Hydroxybenzyl)amino-17-cyclopropylmethylmorphinan], the “selectivity KOR over the DORs” value is > 10,000 fold.

The target in the next assay is human μ opioid receptor (Homo sapiens, UniProt P35372). As to the kind of experiment: [35S]GTPγS binding mediated by the mu opioid receptor. The assay is classed as biochemical. The conditions noted are these: [35S]GTPγS binding assay, in words.
Sequence of human μ opioid receptor (P35372 whole entry): as the sequence (P35372 whole entry) above
Regarding `CN1CC[C@]23c4c5ccc(NCc6cccc(O)c6)c4O[C@H]2[C@@H](O)C=C[C@H]3[C@H]1C5` [Compound 12b, 3-(3′-hydroxybenzyl)amino-7,8-didehydro-4,5-epoxy-17-methyl-(5α,6α)-morphinan-6-ol], the “functional activity at MOR (agonist character)” value is reported as “full agonists”.
Consider `CN1CC[C@]23CCCC[C@H]2[C@H]1Cc1ccc(NCc2cccc(O)c2)cc13` [Compound 4g], for which the “functional activity at MOR (agonist character)” value is on record as “full agonist”.

A further assay concerns the target T1, human MOR.
Test: not given
The conditions noted are these: Table 1; ratio of Ki values; cited from earlier work.
Take `CN1CC[C@]23CCCC[C@H]2[C@H]1Cc1ccc(N)cc13` [Compound 2a]: the “Selectivity MOR/KOR/DOR” value was 1/14/190.
With `Nc1ccc2c(c1)[C@@]13CCCC[C@H]1[C@@H](C2)N(CC1CCC1)CC3` [Compound 2b], the “Selectivity MOR/KOR/DOR” value was 2/1/100.
For the compound `c1ccc(CNc2ccc3c(c2)[C@@]24CCCC[C@H]2[C@@H](C3)N(CC2CC2)CC4)cc1` [Compound 8a, reference compound], the “Selectivity MOR/KOR/DOR” value was 1/1/112.
Regarding `c1ccc(CNc2ccc3c(c2)[C@@]24CCCC[C@H]2[C@@H](C3)N(CC2CCC2)CC4)cc1` [Compound 8d, reference compound], the “Selectivity MOR/KOR/DOR” value is on record as 1/2/76.
